# Results taken from patent EP0156224A2, “Novel benzoxathiin derivative, process for preparing them and pharmaceutical composition” (SUNTORY LIMITED, priority 1984, dated 1985).
# Where two headings read alike, the source gives them in different places.
# What was measured:
# β-Receptor = test: β-receptor blocking effect: 3H-dihydroalprenolol binding to synaptosome membrane of rat brain
# Experimental: Spraque-Dawley male rats having 150 - 200 g body weight were decapitated, and the brains were quickly taken out and, after decortication, frozen at -70°C. After freezing overnight at -70°C, the thawed brain was homogenized with a buffer [0.25 mole sucrose, 5 mmole tris(hydroxymethyl)aminomethane hydrochloride, 1 mmole magnesium chloride, pH 7.4] in an amount of 8 times the weight of the brain. The homogenate was centrifuged at 800 x g for 20 minutes, and the supernatant was centrifuged at 14,000 x g for 14 minutes, the deposit of which was washed three times with the above-mentioned buffer. The deposit finally obtained was suspended again in a buffer of 75 mmole tris(hydroxymethyl)aminomethane and 25 mmole magnesium chloride (pH 7.4) to form a membrane specimen.
# To 50 1 of the membrane specimen were added 50 1 of ^3H-dihydroalprenolol (^3H-OHA) and 50 1 of the mixture of the test frug and the buffer, such that the total volume was adjusted to 150 1, and the mixture was incubated at 37°C for 10 minutes.
# The reaction was stopped by adding an ice-cooled mixture of 50 mmole tris(hydroxymethyl)aminomethane hydrochloride and 17 mmole magnesium chloride (pH 7.4), and the mixture was filtered under reduced pressure through a Whatman GF/B glassfiber. The filter was washed three times and dried, and a toluene type scintillator was added to measure the radioactivity.
# . In the measurement, the amount obtained by subtracting the bondings obtained in the presence of 10^-5 mole propranolol from the total bondings was considered to represent the specific bondings of the S-receptor. In addition, the determination of protein was carried out according to the method of Lowry et al. [Lowry, O.H. et al., J. Biol. Chem., 193, 265-275 (1951)].
# ddy male mouse = test: Anti-arrhythmic effect: prevention of chloroform-induced ventricular flutter and fibrillation; format: in vivo; conditions: ip, 0.5 h, read-out: Anti-arrhythmic effect (ED50)
# Experimental: When a compound showing an anti-arrhythmic effect is previously administered, such an irregular ventricular appearance is prevented. The compound of this invention was intraperioneally administered in various dosages to the groups of 29 - 40 mice. After 30 minutes the mice were subjected to the inhalation of chloroform, and the preventive ratios of the venticular flutter and fibrillation were measured for respective dosages.
# in vivo = conditions: mouse, ddy male mice, mortality within 1 week
# [1] = system: SHR (spontaneous hypertensive rat); test: Effect on mean blood pressure in conscious spontaneously hypertensive rats; format: in vivo; conditions: for mean blood pressure % Exchange: conscious SHR, mean ±SEM
# From the text: In order to measure the blood pressure of a SHR (spontaneous hypertensive rat), a polyethylene tube was inserted into an artery to a level of the abdominal aorta through the crural artery, and the other end of the tube was tightly stoppered by a metal rod, extended subcutaneously and exposed out of the body at the posterior of the neck and fixed by suturation to the surrounding skin. The tube was filled with 500 U of heparin.
# On the day subsequent to the operation, the blood pressure was measured without anesthetization or restriction using a pressure transducer and continously recorded on a thermal recording system together with the heart rate which was measured by driving a tachometer with the pulse wave of blood pressure.
# The test drugs were dissolved in physiological saline and administered using a sound (p.o.)
# [2] = 10^-5 mole test compound, 10 µM
# [3] = intraperitoneal, chloroform inhalation after 30 minutes, mice
# [4] = iv, caudal vein, read-out: Acute toxicity (LD50) intra-venous
# [5] = po, in stomach, read-out: Acute toxicity (LD50) in stomach
smiles,measurement,setting,value
"CNCC(O)COc1cccc2c1OS(=O)(=O)CC2 (stereo not drawn) [Example 1, 8-(3-methylamino-2-hydroxypropoxy)-3,4-dihydro-1,2-benzoxathiin-2,2-dioxide]",β-Receptor blocking effect Inhibition (%),β-Receptor; [2],73.9%
same,β-Receptor blocking effect Inhibition (%),"β-Receptor; 10^-6 mole test compound, 1 µM",35.4%
"CN(C)CC(O)COc1cccc2c1OS(=O)(=O)CC2 (stereo not drawn) [Example 2, 8-(3-dimethylamino-2-hydroxypropoxy)-3,4-dihydro-1,2-benzoxathiin-2,2-dioxide]",β-Receptor blocking effect Inhibition (%),β-Receptor; [2],62.6%
same,β-Receptor blocking effect Inhibition (%),"β-Receptor; 10^-6 mole test compound, 1 µM",17.1%
"CC(C)NCC(O)COc1cccc2c1OS(=O)(=O)CC2 (stereo not drawn) [Example 3, 8-(3-isopropylamino-2-hydroxypropoxy)-3,4-dihydro-1,2-benzoxathiin-2,2-dioxide]",β-Receptor blocking effect Inhibition (%),β-Receptor; [2],91.6%
same,β-Receptor blocking effect Inhibition (%),"β-Receptor; 10^-6 mole test compound, 1 µM",97.6%
same,ED50,ddy male mouse; [3],0.23 mg/kg
same,LD50 at 168 h,in vivo; [4],68.2 mg/kg
same,LD50 at 168 h,in vivo; [5],> 500 mg/kg
"CC(C)(C)NCC(O)COc1cccc2c1OS(=O)(=O)CC2 (stereo not drawn) [Example 4, 8-(3-t-butylamino-2-hydroxypropoxy)-3,4-dihydro-l,2-benzoxathiin-2,2-dioxide]",β-Receptor blocking effect Inhibition (%),β-Receptor; [2],91.4%
same,β-Receptor blocking effect Inhibition (%),"β-Receptor; 10^-6 mole test compound, 1 µM",96.3%
same,ED50,ddy male mouse; [3],0.03 mg/kg
same,mean blood pressure % Exchange,"[1]; 0.1 mg/kg p.o., 10 min",6.4 ± 3.5%
same,mean blood pressure % Exchange,"[1]; 0.1 mg/kg p.o., 20 min",4.6 ± 3.2%
same,mean blood pressure % Exchange,"[1]; 0.1 mg/kg p.o., 30 min",4.1 ± 2.6%
same,mean blood pressure % Exchange,"[1]; 0.1 mg/kg p.o., 60 min",-4.2 ± 3.8%
same,mean blood pressure % Exchange,"[1]; 0.1 mg/kg p.o., 90 min",-6.5 ± 3.2%
same,mean blood pressure % Exchange,"[1]; 0.1 mg/kg p.o., 120 min",-7.3 ± 5.9%
same,mean blood pressure % Exchange,"[1]; 0.1 mg/kg p.o., 3 hr",-8.9 ± 3.0%
same,mean blood pressure % Exchange,"[1]; 0.1 mg/kg p.o., 4 hr",-13.0 ± 2.5 %
same,mean blood pressure % Exchange,"[1]; 0.1 mg/kg p.o., 5 hr",-14.7 ± 2.5 %
same,mean blood pressure % Exchange,"[1]; 0.1 mg/kg p.o., 6 hr",-14.8 ± 2.4 %
same,mean blood pressure % Exchange,"[1]; 0.1 mg/kg p.o., 24 hr",-2.8 ± 4.2%
same,mean blood pressure % Exchange,"[1]; 1 mg/kg p.o., 10 min",1.4 ± 1.2%
same,mean blood pressure % Exchange,"[1]; 1 mg/kg p.o., 20 min",-0.3 ± 1.7%
same,mean blood pressure % Exchange,"[1]; 1 mg/kg p.o., 30 min",-8.1 ± 2.9 %
same,mean blood pressure % Exchange,"[1]; 1 mg/kg p.o., 60 min",-12.0 ± 4.3 %
same,mean blood pressure % Exchange,"[1]; 1 mg/kg p.o., 90 min",-10.9 ± 2.8 %
same,mean blood pressure % Exchange,"[1]; 1 mg/kg p.o., 120 min",-14.5 ± 4.3 %
same,mean blood pressure % Exchange,"[1]; 1 mg/kg p.o., 3 hr",-16.3 ± 4.1 %
same,mean blood pressure % Exchange,"[1]; 1 mg/kg p.o., 4 hr",-20.0 ± 3.7 %
same,mean blood pressure % Exchange,"[1]; 1 mg/kg p.o., 5 hr",-24.5 ± 4.0 %
same,mean blood pressure % Exchange,"[1]; 1 mg/kg p.o., 6 hr",-24.1 ± 3.3 %
same,mean blood pressure % Exchange,"[1]; 1 mg/kg p.o., 24 hr",-11.5 ± 6.2%
same,duration of hypotensive effect,"[1]; result in words, SHR, p.o., after 24 hours",remains effective even after 24 hours
same,hypotensive effect,"[1]; result in words, SHR, p.o., compared with carteolol",excellent hypotensive effect at almost the same level as carteolol
same,LD50 at 168 h,in vivo; [4],59.2 mg/kg
same,LD50 at 168 h,in vivo; [5],> 500 mg/kg
"CCC(C)NCC(O)COc1cccc2c1OS(=O)(=O)CC2 (stereo not drawn) [Example 5, 8-(3-sec-butylamino-2-hydroxypropoxy)-3,4-dihydro-1,2-benzoxathiin-2,2-dioxide]",β-Receptor blocking effect Inhibition (%),β-Receptor; [2],95.3%
same,β-Receptor blocking effect Inhibition (%),"β-Receptor; 10^-6 mole test compound, 1 µM",83.0%
same,ED50,ddy male mouse; [3],1.3 mg/kg
same,LD50 at 168 h,in vivo; [4],68.2 mg/kg
same,LD50 at 168 h,in vivo; [5],> 500 mg/kg
"CC(C)CNCC(O)COc1cccc2c1OS(=O)(=O)CC2 (stereo not drawn) [Example 6, 8-(3-isobutylamino-2-hydroxypropoxy)-3,4-dihydro-l,2-benzoxathiin-2,2-dioxide]",β-Receptor blocking effect Inhibition (%),β-Receptor; [2],81.9%
same,β-Receptor blocking effect Inhibition (%),"β-Receptor; 10^-6 mole test compound, 1 µM",41.7%
"COc1ccc(CCNCC(O)COc2cccc3c2OS(=O)(=O)CC3)cc1OC (stereo not drawn) [Example 7, 8-[3-(3,4-dimethoxyphenethylamino)-2-hydroxy-propoxy]-3,4-dihydro-1,2-benzoxathiin-2,2-dioxide]",β-Receptor blocking effect Inhibition (%),β-Receptor; [2],90.1%
same,β-Receptor blocking effect Inhibition (%),"β-Receptor; 10^-6 mole test compound, 1 µM",75.2%
"CCCC(=O)Nc1ccc(OCC(O)CNC(C)C)c(C(C)=O)c1 (stereo not drawn) [acebutolol, reference compound]",ED50,ddy male mouse; [3],47 mg/kg
"CC(C)(C)NCC(O)COc1cccc2c1CCC(=O)N2 (stereo not drawn) [carteolol, reference compound]",ED50,ddy male mouse; [3],400 mg/kg
same,mean blood pressure % Exchange,"[1]; 0.1 mg/kg p.o., 10 min",1.4 ± 2.1%
same,mean blood pressure % Exchange,"[1]; 0.1 mg/kg p.o., 20 min",-9.2 ± 4.0%
same,mean blood pressure % Exchange,"[1]; 0.1 mg/kg p.o., 30 min",-11.3 ± 3.9 %
same,mean blood pressure % Exchange,"[1]; 0.1 mg/kg p.o., 90 min",-18.1 ± 3.7 %
same,mean blood pressure % Exchange,"[1]; 0.1 mg/kg p.o., 120 min",-12.7 ± 6.5%
same,mean blood pressure % Exchange,"[1]; 0.1 mg/kg p.o., 3 hr",-15.4 ± 3.3 %
same,mean blood pressure % Exchange,"[1]; 0.1 mg/kg p.o., 4 hr",-15.1 ± 3.7 %
same,mean blood pressure % Exchange,"[1]; 0.1 mg/kg p.o., 5 hr",-18.8 ± 1.3 %
same,mean blood pressure % Exchange,"[1]; 0.1 mg/kg p.o., 6 hr",-20.8 ± 1.7 %
same,mean blood pressure % Exchange,"[1]; 0.1 mg/kg p.o., 24 hr",-2.1 ± 2.5%
same,mean blood pressure % Exchange,"[1]; 1 mg/kg p.o., 10 min",2.5 ± 3.2%
same,mean blood pressure % Exchange,"[1]; 1 mg/kg p.o., 20 min",-1.4 ± 2.6%
same,mean blood pressure % Exchange,"[1]; 1 mg/kg p.o., 30 min",-5.1 ± 3.6%
same,mean blood pressure % Exchange,"[1]; 1 mg/kg p.o., 60 min",-11.7 ± 3.3 %
same,mean blood pressure % Exchange,"[1]; 1 mg/kg p.o., 90 min",-14.7 ± 3.6 %
same,mean blood pressure % Exchange,"[1]; 1 mg/kg p.o., 120 min",-23.8 ± 3.0 %
same,mean blood pressure % Exchange,"[1]; 1 mg/kg p.o., 3 hr",-23.1 ± 4.8 %
same,mean blood pressure % Exchange,"[1]; 1 mg/kg p.o., 4 hr",-24.4 ± 4.2 %
same,mean blood pressure % Exchange,"[1]; 1 mg/kg p.o., 5 hr",-24.7 ± 4.7 %
same,mean blood pressure % Exchange,"[1]; 1 mg/kg p.o., 6 hr",-21.3 ± 4.2 %
same,mean blood pressure % Exchange,"[1]; 1 mg/kg p.o., 24 hr",-2.1 ± 4.5%
same,LD50 at 168 h,in vivo; [4],38 mg/kg
"CC(C)NCC(O)COc1cccc2ccccc12 (stereo not drawn) [propranolol, reference compound]",ED50,ddy male mouse,2.2 mg/kg
